Test results: US20050182124A1, “Ester bacteriostat for stabilizing cosmetics” (VAMA FARMACOSMETICA S.r.l., priority 2004, published 2005)
≈ marks a conversion by molar mass, not a printed value. Where two headings read alike, the source gives them in different places.

Assays:
skin = experiment: Patch test (finn chamber) for skin compatibility: primary irritation and allergic response; type: in vivo, human; settings: 25 healthy volunteers; about 20 μg solid product on the back, finn chamber 48 hours; read 15 mins, 1 hr and 24 hrs after removal
Procedure: The skin compatibility of the bacteriostat according to the invention, in terms of anergic response and of primary Irritation. was tested with the following patch tests.
A panel of 25 healthy volunteers was subjected to the application onto the back of about 20 μg of solid product with the use of a “finn chamber” (patch test). After 48 hours the “finn chamber” was removed and the skin reactions after 15 mins, 1 hr and 24 hrs from removal were clinically evaluated.

Pseudomonas aeruginosa = experiment: MIC (Minimal Inhibition Concentration) test on bacterial colonies; type: cell-based; settings: read-out: MIC (Minimal Inhibition Concentration)
Procedure: (§1) With the purpose of evaluating the bacteriostatic activity of the bacteriostats of the invention, the following MIC (Minimal Inhibition Concentration) tests were carried out on bacterial colonies of “Pseudomonas aeruginosa” (Pa) and of “Staphylococcus aureus” (Sa), respectively with pure phenoxyethanol of formula (IV) and with phenoxyethanol ester of PCA of formula (V) of the invention.

Staphylococcus aureus = experiment: as above; type: cell-based; settings: read-out: MIC (Minimal Inhibition Concentration)
Procedure: as §1

MIC (Pseudomonas aeruginosa; Pseudomonas aeruginosa (Pa))	MIC (Staphylococcus aureus; Staphylococcus aureus (Sa))	Compound	skin irritation (primary irritation) in patch test (skin)	skin sensitization in patch test (skin)	MIC (Pseudomonas aeruginosa; Pseudomonas aeruginosa)	MIC (Staphylococcus aureus; Staphylococcus aureus)
1000 mg/L (≈ 4.01 mM)	1000 mg/L (≈ 4.01 mM)	O=C1CCC(C(=O)OCCOc2ccccc2)N1 (stereo not shown) [PCA Ester, phenoxyethanol ester of PCA]	not to be irritating	did not sensitize the skin		
		OCCOc1ccccc1 [phenoxyethanol, 2-phenoxyethanol, reference compound]	moderately irritating		3200 mg/L (≈ 23.2 mM)	6400 mg/L (≈ 46.3 mM)
